From ChEMBL document CHEMBL1137297, “Synthesis and pharmacological evaluation of novel octahydro-1H-pyrido[1,2-a]pyrazine as mu-opioid receptor antagonists” (J Med Chem, 2006)

Key:
Format in all cases: cell-based
[1] = biological target: Delta-type opioid receptor (Homo sapiens, UniProt P41143); assay: Inhibition of [3H]diprenorphine binding to human cloned delta opioid receptor expressed in CHO cells at 10 uM
[2] = biological target: Kappa-type opioid receptor (Homo sapiens, UniProt P41145); assay: Inhibition of [3H]diprenorphine binding to human cloned kappa opioid receptor expressed in CHO cells at 10 uM
Kappa-type opioid receptor, sequence (P41145 whole entry): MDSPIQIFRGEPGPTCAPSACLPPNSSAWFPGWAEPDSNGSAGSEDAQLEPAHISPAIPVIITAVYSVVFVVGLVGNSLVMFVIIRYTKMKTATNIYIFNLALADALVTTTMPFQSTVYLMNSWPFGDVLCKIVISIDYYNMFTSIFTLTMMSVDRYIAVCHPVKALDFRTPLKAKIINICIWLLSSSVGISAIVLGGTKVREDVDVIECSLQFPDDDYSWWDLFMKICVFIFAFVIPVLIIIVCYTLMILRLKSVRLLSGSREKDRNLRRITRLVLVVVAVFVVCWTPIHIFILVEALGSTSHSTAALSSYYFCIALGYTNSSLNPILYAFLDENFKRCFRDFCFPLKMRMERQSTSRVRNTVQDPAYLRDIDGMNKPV

[3] = biological target: Mu-type opioid receptor (Homo sapiens, UniProt P35372); assay: Inhibition of [3H]diprenorphine binding to human cloned mu opioid receptor expressed in CHO cells at 10 uM
Mu-type opioid receptor, sequence (P35372 whole entry): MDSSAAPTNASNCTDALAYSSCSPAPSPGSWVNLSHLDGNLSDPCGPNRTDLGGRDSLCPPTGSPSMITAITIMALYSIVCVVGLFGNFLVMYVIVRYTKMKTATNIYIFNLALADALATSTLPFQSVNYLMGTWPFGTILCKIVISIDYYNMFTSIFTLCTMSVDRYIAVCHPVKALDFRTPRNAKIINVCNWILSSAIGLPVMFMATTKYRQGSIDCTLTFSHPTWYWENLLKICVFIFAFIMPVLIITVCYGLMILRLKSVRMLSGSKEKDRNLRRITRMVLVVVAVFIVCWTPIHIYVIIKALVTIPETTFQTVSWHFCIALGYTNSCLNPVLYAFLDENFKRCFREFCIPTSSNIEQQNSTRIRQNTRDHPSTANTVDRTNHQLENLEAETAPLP

Delta-type opioid receptor, sequence (P41143 whole entry): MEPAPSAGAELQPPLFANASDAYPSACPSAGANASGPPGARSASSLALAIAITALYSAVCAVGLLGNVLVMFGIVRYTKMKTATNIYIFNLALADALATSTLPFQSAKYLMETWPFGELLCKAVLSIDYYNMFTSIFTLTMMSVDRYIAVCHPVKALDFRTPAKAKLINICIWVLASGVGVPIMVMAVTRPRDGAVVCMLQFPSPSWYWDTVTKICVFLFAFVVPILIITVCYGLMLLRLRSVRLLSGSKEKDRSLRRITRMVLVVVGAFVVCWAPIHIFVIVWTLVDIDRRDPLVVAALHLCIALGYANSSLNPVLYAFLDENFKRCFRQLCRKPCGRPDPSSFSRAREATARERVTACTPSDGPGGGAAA

Compound `C[C@H]1CN2CCN(C)C[C@H]2C[C@@]1(C)c1cccc(O)c1` has an inhibition [1] of 11%, an inhibition [2] of 60% and an inhibition [3] of 69%.

`C[C@H]1CN2CCNC[C@H]2C[C@@]1(C)c1cccc(O)c1` was tested, and the inhibition [1] was 35%, the inhibition [2] was 46% and the inhibition [3] was 49%.
